The experiment has as its system Ctenocephalides felis, Diabrotica undecimpunctata, Nephotettix cincticeps or Rhipicephalus sanguineus. The experiment is described as follows: Pooled statement: active in one or more of the above tests (Methods A to E). The class given is in vivo. To be noted: active = reaching the threshold of Method A, B, C, D or E; test not given per compound. As to the method:
The following representative test procedures, using compounds of the invention, were conducted to determine the parasiticidal and pesticidal activity of compounds of the invention.
A test container was filled with 10 adults of Ctenocephalides felis. A glass cylinder was closed on one end with parafilm and placed on top of the test container. The test compound solution was then pipetted into bovine blood and added to the glass cylinder. The treated Ctenocephalides felis were held in this artificial dog test (blood 37° C., 40-60% relative humidity; Ctenocephalides felis 20-22° C., 40-60% relative humidity) and assessment performed at 24 and 48 hours after application. Active compounds gave at least 90% control of Ctenocephalides felis at a test concentration of 5 ppm or less.
Two days before application, seeds of maize were soaked in water under warm conditions to elicit fast germination. One day before application, eggs of Diabrotica undecimpunctata were transferred to one half of a Japanese filter paper placed in a plastic petri dish. Afterwards, a sprouted maize seed was placed on a moistened pad beside the filter paper. Three drops of 200 microliters of test compound solution were carefully pipetted onto the egg. The remainder of the solution was placed on the maize and then the Petri dish was closed. The treated eggs in the Petri dishes were held in a climate chamber for 6 days. The compound efficacy (percentage of dead eggs and/or larvae in comparison to untreated control) was assessed 6 days after application using a binocular microscope.
Active compounds gave at least 90% control of Diabrotica undecimpunctata at a test concentration of 10 ppm.
The leaves of 12 rice plants having a stem length of 8 cm were dipped for 5 seconds into an aqueous solution of the formulated test compound. After the solution had run off, the rice plants treated in this manner were placed in a Petri dish and populated with about 20 larvae (L3 stage) of Nephotettix cincticeps. The Petri dish was closed and then stored in a climate chamber (16 hours of light/day, 25° C., 40-60% relative humidity). After 6 days storage, the percentage mortality of leafhopper larvae was determined.
Active compounds gave at least 98% mortality of Nephotettix cinciceps larvae at a test concentration of 100 ppm.
Solutions of the test compounds were dropped onto filter paper, dried and the filter paper placed into test tubes and infested with 10 adults of Ctenocephalides felis. The treated Ctenocephalides felis were held in a climate chamber (26° C., 80% RH) and the percentage efficacy assessed 24 hours and 48 hours after application in comparison with the untreated control.
Active compounds gave at least 70% contact control of Ctenocephalides felis at a test concentration of 1000 ppm.
Solutions of the test compounds were dropped onto filter paper, dried and the filter paper placed into test tubes and infested with 20-30 larvae (L1) of Rhipicephalus sanguineus and the tubes closed with a clip. The treated Rhipicephalus sanguineus were held in a climate chamber (25° C., 90% RH) and the percentage efficacy assessed 24 hours after application in comparison with the untreated control. Active compounds gave at least 70% contact control of Rhipicephalus sanguineus at a test concentration of 100 ppm.
As for `CCCCCCCCCCCCS(=O)(=O)N(C)c1c([S+]([O-])C(F)(F)F)c(C#N)nn1-c1c(Cl)cc(C(F)(F)F)cc1Cl` (centres unmarked) [Compound 1-96], the “active in one or more of the above tests” value was “active”.

As to `CCCCCCCCS(=O)(=O)N(C)c1c([S+]([O-])C(F)(F)F)c(C#N)nn1-c1c(Cl)cc(C(F)(F)F)cc1Cl` (centres unmarked) [Compound 1-123], the “active in one or more of the above tests” value is on record as “active”.

In the case of `CN(c1c([S+]([O-])C(F)(F)F)c(C#N)nn1-c1c(Cl)cc(C(F)(F)F)cc1Cl)S(=O)(=O)c1ccc(Cl)cc1` (centres unmarked) [Compound 5-48], the “active in one or more of the above tests” value is given as “active”.

Turning to `CN(c1c([S+]([O-])C(F)(F)F)c(C#N)nn1-c1c(Cl)cc(C(F)(F)F)cc1Cl)S(=O)(=O)c1ccccc1` (centres unmarked) [Compound 5-81], the “active in one or more of the above tests” value was “active”.

For the compound `CN(c1c([S+]([O-])C(F)(F)F)c(C#N)nn1-c1c(Cl)cc(C(F)(F)F)cc1Cl)S(=O)(=O)c1ccc(-c2ccc(F)cc2)cc1` (centres unmarked) [Compound 5-151], the “active in one or more of the above tests” value is listed as “active”.

For `CN(c1c(SC(F)(F)F)c(C#N)nn1-c1c(Cl)cc(C(F)(F)F)cc1Cl)S(=O)(=O)Cc1cccs1` [Compound 4-33], the “active in one or more of the above tests” value is “active”.

As for `CN(c1c(SC(F)(F)F)c(C#N)nn1-c1c(Cl)cc(C(F)(F)F)cc1Cl)S(=O)(=O)Cc1ccc(Cl)cc1` [Compound 2-45], the “active in one or more of the above tests” value was “active”.

On to `CN(c1c(S(=O)(=O)C(F)(F)F)c(C#N)nn1-c1c(Cl)cc(C(F)(F)F)cc1Cl)S(=O)(=O)Cc1cc(Cl)cc(Cl)c1` [Compound 2-151], for which the “active in one or more of the above tests” value was “active”.

Regarding `CCS(=O)(=O)N(C)c1c(S(=O)(=O)C(F)(F)F)c(C#N)nn1-c1c(Cl)cc(C(F)(F)F)cc1Cl` [Compound 1-72], the “active in one or more of the above tests” value is reported as “active”.

With `CCCCCc1ccc(CS(=O)(=O)N(C)c2c(SC(F)(F)F)c(C#N)nn2-c2c(Cl)cc(C(F)(F)F)cc2Cl)cc1` [Compound 2-148], the “active in one or more of the above tests” value is “active”.

Consider `CN(c1c([S+]([O-])C(F)(F)F)c(C#N)nn1-c1c(Cl)cc(C(F)(F)F)cc1Cl)S(=O)(=O)Cc1ccc(F)cc1` (centres unmarked) [Compound 2-86], for which the “active in one or more of the above tests” value is given as “active”.

As to `Cc1cccc(S(=O)(=O)N(C)c2c(SC(F)(F)F)c(C#N)nn2-c2c(Cl)cc(C(F)(F)F)cc2Cl)c1` [Compound 5-30], the “active in one or more of the above tests” value is on record as “active”.

For `CN(c1c([S+]([O-])C(F)(F)F)c(C#N)nn1-c1c(Cl)cc(C(F)(F)F)cc1Cl)S(C)(=O)=O` (centres unmarked) [Compound 1-16], the “active in one or more of the above tests” value was “active”.

`Cc1ccc(CS(=O)(=O)N(C)c2c([S+]([O-])C(F)(F)F)c(C#N)nn2-c2c(Cl)cc(C(F)(F)F)cc2Cl)cc1` (centres unmarked) [Compound 2-109]: the “active in one or more of the above tests” value is given as “active”.

For the compound `CN(c1c([S+]([O-])C(F)(F)F)c(C#N)nn1-c1c(Cl)cc(C(F)(F)F)cc1Cl)S(=O)(=O)c1cc(Cl)cc(Cl)c1` (centres unmarked) [Compound 5-87], the “active in one or more of the above tests” value is given as “active”.

For `CN(c1c(SC(F)(F)F)c(C#N)nn1-c1c(Cl)cc(C(F)(F)F)cc1Cl)S(=O)(=O)c1ccccc1` [Compound 5-36], the “active in one or more of the above tests” value was “active”.

Consider `CN(c1c([S+]([O-])C(F)(F)F)c(C#N)nn1-c1c(Cl)cc(C(F)(F)F)cc1Cl)S(=O)(=O)c1ccc(C(C)(C)C)cc1` (centres unmarked) [Compound 5-83], for which the “active in one or more of the above tests” value is given as “active”.

`CCCCCCCCS(=O)(=O)N(C)c1c([S+]([O-])C(F)(F)F)c(C#N)nn1-c1c(Cl)cc(C(F)(F)F)cc1Cl` (centres unmarked) [Compound 1-93]: the “active in one or more of the above tests” value is recorded as “active”.

In the case of `Cc1ccc(CS(=O)(=O)N(C)c2c(SC(F)(F)F)c(C#N)nn2-c2c(Cl)cc(C(F)(F)F)cc2Cl)cc1` [Compound 2-74], the “active in one or more of the above tests” value is reported as “active”.

As to `Cc1ccc(S(=O)(=O)N(C)c2c([S+]([O-])C(F)(F)F)c(C#N)nn2-c2c(Cl)cc(C(F)(F)F)cc2Cl)cc1` (centres unmarked) [Compound 5-77], the “active in one or more of the above tests” value is recorded as “active”.

As for `CN(c1c([S+]([O-])C(F)(F)F)c(C#N)nn1-c1c(Cl)cc(C(F)(F)F)cc1Cl)S(=O)(=O)C(Cl)(Cl)Cl` (centres unmarked) [Compound 1-118], the “active in one or more of the above tests” value is “active”.

For `CN(c1c([S+]([O-])C(F)(F)F)c(C#N)nn1-c1c(Cl)cc(C(F)(F)F)cc1Cl)S(=O)(=O)Cc1cccc(C(F)(F)F)c1` (centres unmarked) [Compound 2-92], the “active in one or more of the above tests” value is “active”.

Take `CN(c1c(SC(F)(F)F)c(C#N)nn1-c1c(Cl)cc(C(F)(F)F)cc1Cl)S(C)(=O)=O` [Compound 1-2]: the “active in one or more of the above tests” value is recorded as “active”.

For `CN(c1c([S+]([O-])C(F)(F)F)c(C#N)nn1-c1c(Cl)cc(C(F)(F)F)cc1Cl)S(=O)(=O)c1ccc([N+](=O)[O-])cc1` (centres unmarked) [Compound 5-88], the “active in one or more of the above tests” value is “active”.

As for `COC(=O)c1ccc(I)cc1S(=O)(=O)N(C)c1c([S+]([O-])C(F)(F)F)c(C#N)nn1-c1c(Cl)cc(C(F)(F)F)cc1Cl` (centres unmarked) [Compound 5-86], the “active in one or more of the above tests” value was “active”.

On to `CN(c1c(S(=O)(=O)C(F)(F)F)c(C#N)nn1-c1c(Cl)cc(C(F)(F)F)cc1Cl)S(=O)(=O)Cc1cccs1` [Compound 4-34], for which the “active in one or more of the above tests” value is listed as “active”.

With `COc1ccc(S(=O)(=O)N(C)c2c(SC(F)(F)F)c(C#N)nn2-c2c(Cl)cc(C(F)(F)F)cc2Cl)cc1` [Compound 5-22], the “active in one or more of the above tests” value is reported as “active”.

As for `CN(c1c([S+]([O-])C(F)(F)F)c(C#N)nn1-c1c(Cl)cc(C(F)(F)F)cc1Cl)S(=O)(=O)Cc1cc(C(F)(F)F)cc(C(F)(F)F)c1` (centres unmarked) [Compound 2-94], the “active in one or more of the above tests” value is “active”.

Regarding `CS(=O)(=O)[N-]c1c(SC(F)(F)F)c(C#N)nn1-c1c(Cl)cc(C(F)(F)F)cc1Cl.[Na+]` [Compound 1-116], the “active in one or more of the above tests” value is “active”.

For `CN(c1c(SC(F)(F)F)c(C#N)nn1-c1c(Cl)cc(C(F)(F)F)cc1Cl)S(=O)(=O)Cc1cc(Cl)cc(Cl)c1` [Compound 2-149], the “active in one or more of the above tests” value is recorded as “active”.

Regarding `CC(C)S(=O)(=O)N(C)c1c(SC(F)(F)F)c(C#N)nn1-c1c(Cl)cc(C(F)(F)F)cc1Cl` [Compound 1-122], the “active in one or more of the above tests” value was “active”.

As to `CC(C)S(=O)(=O)N(C)c1c([S+]([O-])C(F)(F)F)c(C#N)nn1-c1c(Cl)cc(C(F)(F)F)cc1Cl` (centres unmarked) [Compound 1-85], the “active in one or more of the above tests” value was “active”.

As to `CN(c1c(S(=O)(=O)C(F)(F)F)c(C#N)nn1-c1c(Cl)cc(C(F)(F)F)cc1Cl)S(=O)(=O)Cc1ccc(C(F)(F)F)cc1` [Compound 2-128], the “active in one or more of the above tests” value was “active”.

Take `CN(c1c([S+]([O-])C(F)(F)F)c(C#N)nn1-c1c(Cl)cc(C(F)(F)F)cc1Cl)S(=O)(=O)Cc1ccc(Cl)cc1` (centres unmarked) [Compound 2-80]: the “active in one or more of the above tests” value was “active”.

Consider `CN(c1c(SC(F)(F)F)c(C#N)nn1-c1c(Cl)cc(C(F)(F)F)cc1Cl)S(=O)(=O)Cc1ccc(Cl)c(Cl)c1` [Compound 2-48], for which the “active in one or more of the above tests” value is recorded as “active”.

Regarding `CN(c1c(SC(F)(F)F)c(C#N)nn1-c1c(Cl)cc(C(F)(F)F)cc1Cl)S(=O)(=O)c1ccc(F)cc1` [Compound 5-9], the “active in one or more of the above tests” value was “active”.

With `CCCCS(=O)(=O)N(C)c1c([S+]([O-])C(F)(F)F)c(C#N)nn1-c1c(Cl)cc(C(F)(F)F)cc1Cl` (centres unmarked) [Compound 1-87], the “active in one or more of the above tests” value was “active”.

For `CN(c1c(S(=O)(=O)C(F)(F)F)c(C#N)nn1-c1c(Cl)cc(C(F)(F)F)cc1Cl)S(=O)(=O)Cc1ccccc1` [Compound 2-30], the “active in one or more of the above tests” value is “active”.

Turning to `CN(c1c([S+]([O-])C(F)(F)F)c(C(N)=S)nn1-c1c(Cl)cc(C(F)(F)F)cc1Cl)S(=O)(=O)Cc1ccccc1` (centres unmarked) [Compound 7-32], the “active in one or more of the above tests” value was “active”.

As for `CN(c1c(SC(F)(F)F)c(C#N)nn1-c1c(Cl)cc(C(F)(F)F)cc1Cl)S(=O)(=O)Cc1ccccc1` [Compound 2-2], the “active in one or more of the above tests” value is “active”.

For `CN(c1c([S+]([O-])C(F)(F)F)c(C#N)nn1-c1c(Cl)cc(C(F)(F)F)cc1Cl)S(=O)(=O)c1cccc(Cl)c1` (centres unmarked) [Compound 5-47], the “active in one or more of the above tests” value is “active”.

The values above are taken from patent US7504362B2, “Pesticidal compositions” (Merial Limited, priority 2002, dated 2009).
